Results on 11 compounds are retold here after US10111874B2, “Combination therapies for treatment of cancer” (Araxes Pharma LLC, priority 2014, dated 2018).

Each structure is given as a SMILES string.

T1 sequence (P01116 1-169 isoform P01116-2 G12C): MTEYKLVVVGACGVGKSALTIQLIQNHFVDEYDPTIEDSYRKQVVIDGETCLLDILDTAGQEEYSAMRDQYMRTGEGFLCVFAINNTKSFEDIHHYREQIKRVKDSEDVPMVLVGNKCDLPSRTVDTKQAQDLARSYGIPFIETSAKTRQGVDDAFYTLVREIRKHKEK

This assay addresses T1, KRAS G12C 1-169, his-tagged protein, GDP-loaded (Homo sapiens, UniProt P01116, G12C).
T1 construct: KRAS G12C 1-169, his-tagged protein, GDP-loaded
As to the kind of experiment: Biochemical assay: covalent binding to KRAS G12C analyzed by mass spectrometry. Also: test concentration or dose not given here. As to conditions: compounds 48-246, measured at 2 h.
As for `C=CC(=O)N1CCN(c2ncnc3c(F)c(-c4ccccc4C(N)=O)c(Cl)cc23)CC1` [Compound I-236, 2-(4-(4-acryloylpiperazin-1-yl)-6-chloro-8-fluoroquinazolin-7-yl)benzamide], the Binding % result is “+++ (+++indicates binding activity greater than 50% and up to 75%)”.

In the case of `C=CC(=O)N1CCN(c2ncnc3cc(-c4c(C)ccc5[nH]ncc45)c(C(F)(F)F)cc23)CC1` [Compound I-237, 1-(4-(7-(5-methyl-1H-indazol-4-yl)-6-(trifluoromethyl)quinazolin-4-yl)piperazin-1-yl)prop-2-en-1-one], the Binding % result is listed as “++++ (++++indicates binding activity greater than 75%)”. Regarding `C=CC(=O)N1CCN(c2cnnc3cc(-c4c(C)ccc5[nH]ncc45)c(Cl)cc23)CC1` [Compound I-238, 1-(4-(6-chloro-7-(5-methyl-1H-indazol-4-yl)cinnolin-4-yl)piperazin-1-yl)prop-2-en-1-one], the Binding % result is “+++ (+++indicates binding activity greater than 50% and up to 75%)”. With `CCOC(=O)/C=C/C(=O)N1CCN(c2ncnc3cc(-c4ccc(F)cc4F)c(Cl)cc23)CC1` [Compound I-239, (E)-ethyl 4-(4-(6-chloro-7-(2,4-difluorophenyl)quinazolin-4-yl)piperazin-1-yl)-4-oxobut-2-enoate], the Binding % entry is “+++ (+++indicates binding activity greater than 50% and up to 75%)”.

Consider `C=CC(=O)N1CCN(c2ncnc3cc(-c4cccc5ccc(=O)[nH]c45)c(Cl)cc23)CC1` [Compound I-240, 8-(4-(4-acryloylpiperazin-1-yl)-6-chloroquinazolin-7-yl)quinolin-2(1H)-one], for which the Binding % entry was “+++ (+++indicates binding activity greater than 50% and up to 75%)”. As for `CC(C)/C=C(\C#N)C(=O)N1CCN(c2ncnc3cc(-c4ccccc4F)c(Cl)cc23)CC1` [Compound I-241, (E)-2-(4-(6-chloro-7-(2-fluorophenyl)quinazolin-4-yl)piperazine-1-carbonyl)-4-methylpent-2-enenitrile], the Binding % result is on record as “+ (+indicates binding activity from 5% to 25%)”.

As to `C=CC(=O)N1CCN(c2c(C#N)cnc3c(F)c(-c4ccccc4F)c(Cl)cc23)CC1` [Compound I-242, 4-(4-acryloylpiperazin-1-yl)-6-chloro-8-fluoro-7-(2-fluorophenyl)quinoline-3-carbonitrile], the Binding % result is reported as “++++ (++++indicates binding activity greater than 75%)”. The entry for `C=CC(=O)N1CCN(c2ncnc3c(F)c(-c4ccccc4C(F)(F)F)c(Cl)cc23)CC1CC#N` (centres unmarked) [Compound I-243, 2-(1-acryloyl-4-(6-chloro-8-fluoro-7-(2-(trifluoromethyl)phenyl)quinazolin-4-yl)piperazin-2-yl)acetonitrile] is “++++ (++++indicates binding activity greater than 75%)”; for `C=CC(=O)N1CCN(c2ncnc3cc(-c4c(OC)ccc5[nH]ncc45)c(Cl)cc23)CC1` [Compound I-244, 1-(4-(6-chloro-7-(5-methoxy-1H-indazol-4-yl)quinazolin-4-yl)piperazin-1-yl)prop-2-en-1-one] it is “+ (+indicates binding activity from 5% to 25%)”.

Consider `N#C/C(=C\c1cncs1)C(=O)N1CCN(c2ncnc3cc(-c4ccccc4F)c(Cl)cc23)CC1` [Compound I-245, (E)-2-(4-(6-chloro-7-(2-fluorophenyl)quinazolin-4-yl)piperazine-1-carbonyl)-3-(thiazol-5-yl)acrylonitrile], for which the Binding % result is “+ (+indicates binding activity from 5% to 25%)”. `C=CC(=O)N1CCN(c2c(C#N)cnc3c(F)c(-c4c(O)cccc4F)c(Cl)cc23)CC1` [Compound I-246, 4-(4-acryloylpiperazin-1-yl)-6-chloro-8-fluoro-7-(2-fluoro-6-hydroxyphenyl)quinoline-3-carbonitrile]: the Binding % entry was “++++ (++++indicates binding activity greater than 75%)”.
